Patent US11926645B2, “Compounds and methods for treatment of viral infections” (priority 2020, dated 2024)
Where two headings read alike, the source gives them in different places.

How the values were obtained:
SARS-CoV-2 BZ/2021 P.1 = assay: microbe, parasite or virus in culture; format: cell-based; settings: Severe acute respiratory syndrome coronavirus 2, Vero C1008
[1] = system: RSV-Fluc (Respiratory Syncytial virus strain A2 containing the firefly luciferase reporter); assay: microbe, parasite or virus in culture; format: cell-based; settings: human respiratory syncytial virus, 72 h, NHBE cells, three days
CES1 = biological target: T1, CES1 (Homo sapiens, UniProt P23141); assay: CES1/2 stability, CES1; format: in vitro ADME; settings: CES1 Supersome preparation; Supersome preparations, CES 1.5 mg/ml, 2 μM substrate, pH 7.4, 37° C.; read-out: CES1 T1/2
T1 construct: purchased
T1 sequence (P23141 18-567): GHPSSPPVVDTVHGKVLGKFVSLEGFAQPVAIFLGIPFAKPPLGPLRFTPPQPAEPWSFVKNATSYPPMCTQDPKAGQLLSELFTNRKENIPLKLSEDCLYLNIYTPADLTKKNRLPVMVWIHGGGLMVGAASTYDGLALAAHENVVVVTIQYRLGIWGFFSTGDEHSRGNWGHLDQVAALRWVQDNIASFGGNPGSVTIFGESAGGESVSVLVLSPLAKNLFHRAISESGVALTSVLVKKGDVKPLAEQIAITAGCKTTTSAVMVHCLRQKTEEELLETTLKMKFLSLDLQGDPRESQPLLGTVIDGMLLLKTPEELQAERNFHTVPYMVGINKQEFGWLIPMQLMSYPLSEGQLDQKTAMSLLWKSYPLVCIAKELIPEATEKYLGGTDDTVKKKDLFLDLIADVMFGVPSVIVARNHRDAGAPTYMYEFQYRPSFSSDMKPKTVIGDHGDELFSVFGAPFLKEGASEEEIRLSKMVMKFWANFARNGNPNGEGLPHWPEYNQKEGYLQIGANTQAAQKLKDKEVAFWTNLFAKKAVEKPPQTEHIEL
Protocol: Test compounds or positive control substrates (oseltamivir for CES1 enzymes or procaine for CES2) were incubated with individual Supersome preparations (final CES concentration 1.5 mg/ml) in 0.1 M potassium phosphate buffer (pH 7.4) at 37° C. Substrates were added to a final concentration of 2 μM to initiate the reaction. The final incubation volume was 250 μL. Aliquots were removed after incubation for 0, 10, 30, 60 and 120 min. The reactions were stopped by the addition of IS/Q. Following protein precipitation and centrifugation, 150 μL of supernatant was diluted with an equal volume of water prior to LC-MS analysis. For procaine 150 μL of supernatant was dried down and reconstituted with 250 μL water. All samples were analyzed by LC-MS and the PAR values were used for quantification.

RSV strain A2 = assay: RSV antiviral assay (Hep2), EC50-Hep2/B1-384; format: cell-based; settings: human respiratory syncytial virus, HEp-2, 96 h; Hep2 cells, 4 days, Cell-Titer Glo
in vitro [2] = settings: African green monkey
in vitro [3] = format: in vitro ADME, Human; settings: human, s9, pH 7.4
Protocol: Duplicate aliquots of test compound or positive control substrate (GS-7340) were added to S9 stock diluted with 100 mM phosphate buffered saline, pH 7.4, to obtain a protein concentration of 1.0 mg/mL. The S9 metabolic reactions were initiated by the addition of the substrates to the S9 reaction mixture to a final concentration of 2 μM. At 0, 10, 20, 30, 60 and 120 min, 25 μL aliquots of the reaction mixture were transferred to plates containing 225 μl of IS/Q solution. After quenching, the plates were centrifuged at 3000×g for 30 minutes, and 150 μL aliquots of each supernatant were diluted with 150 μL water. Aliquots (10 μL) of the diluted supernatant were analyzed on a Thermo Q-Exactive mass spectrometer as described below.
Quantification of test compounds and controls was performed by analyte/internal standard peak area ratio (PAR) values measured on a Thermo Q-Exactive mass spectrometer coupled to a Dionex UltiMate 3000 HPLC with a Leap Technologies HTC PAL autosampler. The column used was a Thermo Hypersil GOLD (1.9 μm particle size, 2.1×50 mm). Mobile phase A consisted of 0.1% (v/v) formic acid in water. Mobile phase B consisted of 0.1% (v/v) formic acid in acetonitrile. Elution of analytes was achieved by a series of linear gradients of acetonitrile in water containing 0.1% (v/v) formic acid. The mass spectrometer was calibrated on a weekly basis and mass tolerance of 5 ppm was used.

in vitro [4] = settings: hamster
in vitro [5] = format: cell-based; settings: human
Protocol: The cytotoxicity of compounds was determined in A549-hACE2 cells in the following manner. Compounds (200 nL) were spotted onto 384-well Grenier plates prior to seeding 5000 A549-hACE2 cells/well in a volume of 40 μL culture medium. The plates were incubated at 37° C. for 48 hours with 5% CO2. On day 2, 40 μL of CellTiter-Glo (Promega) was added and mixed 5 times.

CC(C)C(=O)OC[C@H]1O[C@@](C#N)(c2ccc3c(N)ncnn23)[C@H](OC(=O)C(C)C)[C@@H]1OC(=O)C(C)C [Compound 1, (2R,3R,4R,5R)-2-(4-aminopyrrolo[2,1-f][1,2,4]triazin-7-yl)-2-cyano-5-((isobutyryloxy)methyl)tetrahydrofuran-3,4-diyl bis(2-methylpropanoate)]
EC50 (SARS-CoV-2 BZ/2021 P.1): 220 nM | EC50 [1]: 389 nM | half-life at 2 μM (CES1): < 60 s | EC50 (RSV strain A2): 261 nM | CC50 (in vitro [2]): > 100000 nM | half-life at 2 μM (in vitro [3]): 22.2 s | CC50 (in vitro [4]): > 100000 nM | CC50 at 48 h (in vitro [5]): > 50000 nM | CC50 (in vitro [5]; host cells A549-ACE2, read-out: CC50, A549-ACE2): > 50000 nM
